Experimental findings from PMC4259414, “HS-133, a novel fluorescent phosphatidylinositol 3-kinase inhibitor as a potential imaging and anticancer agent for targeted therapy” (Oncotarget, 2014) are described below.

Read-outs that look alike come from different tables or passages of the source.

The target of series [1] is T1, PI3Kα (Homo sapiens, UniProt P42336).
T1 construct: purchased Reaction Biology Corp. (Malvern, PA), contract assay service
Description: radiometric kinase assay ([γ-33P]-ATP), Reaction Biology Corp. In kind it is biochemical.

Series [2] concerns SkBr3 cells. In words: apoptosis: Western blotting and TUNEL assay. In kind it is cell-based, human. An excerpt:
Since PI3K and its downstream effectors appear to mediate anti-apoptotic signals, we examined the effect of HS-133 on apoptosis. […] We also observed that the levels of Bax, pro-apoptotic protein, were increased by HS-133 treatment in a dose-dependent manner. Furthermore, induction of apoptosis by HS-133 was confirmed by visualizing the fragmented DNA with TUNEL staining (Fig. 5B).
The cells were washed three times with ice-cold PBS before lysis, and were lysed with a buffer containing 1% Triton X-100, 1% Nonidet P-40 (NP-40), as well as protease and phosphatase inhibitor cocktails (GenDEPOT, Barker, TX). Equal amounts of protein were separated by 10% sodium dodecyl sulfate-polyacrylamide gel electrophoresis (SDS-PAGE) and transferred onto the polyvinylidene fluoride (PVDF) membranes (Millipore, Bedford, MA). Immunostaining was performed by incubating the blots with primary antibodies, followed by horseradish peroxidase (HRP)-conjugated secondary antibody and detected with an enhanced chemiluminescence (ECL) plus system (Amersham Biosciences, Piscataway, NJ). […]
The SkBr3 cells were plated on 18-mm cover glasses in DMEM medium and incubated for 24 h so that approximately 70% confluence was reached. […] The stained cells were examined for a fluorescence of nuclear fragmentation. […]
On the technique in general: In western blotting, separated proteins are transferred to a membrane and probed.

Series [3] has as its system HUVECs. Description: wound migration assay. In kind it is cell-based, human. To be noted: HUVECs, 1, 5, or 10 μM, 18 h. As for the experimental part: To examine the effect of HS-133 on angiogenesis, a capillary tube formation assay using human umbilical vein endothelial cells (HUVECs) was performed. […] Cell migration is critical for the endothelial cells to form blood vessels during angiogenesis, and is necessary for tumor growth and metastasis. Thus, we conducted a wound migration assay to study the effect of HS-133 on cell migration. […] Considering that endothelial migration and tube formation have all highly relevant properties of angiogenesis, our results illustrated that HS-133 has the ability to block angiogenesis.
HUVECs plated on 60 mm-diameter culture dishes at 90% confluence, were wounded 2 mm in width with a sterile razor blade and marked at the injury line. […] HUVECs were allowed to migrate for 18 h and were rinsed with a serum-free medium, followed by fixing with absolute methanol and staining with Giemsa (Sigma-Aldrich). Migration was quantitated with counting the number of cells that moved beyond the reference line.

In series [4] the test system is SkBr3 xenograft. Description: SkBr3 tumor xenograft study. In kind it is in vivo, BALB/c nude mice. Here is the method: We examined the effects of HS-133 using athymic BALB/c nude mice implanted with the SkBr3 cells. HS-133 was injected intratumorally 2 times per week with a dose of 5 mg/kg when tumors reached an average volume of 50–100 mm^3. […] The average tumor volume of HS-133 treated mice was reduced by about 50% compared to that of control mice (Fig. 8D). To assess the general toxicity, we also measured the body weight change in tumor-bearing mice.
To establish SkBr3 tumor xenograft in mice, the SkBr3 cell line was grown in a culture, detached by trypsinization, washed and resuspended in PBS. Six-week old athymic BALB/c nude mice (Central Lab. Animal Inc. Seoul, Korea) were injected with 5 × 10^6 cells in the right flank of each mouse to initiate tumor growth. After reaching a tumor volume of 50–100 mm^3, mice were randomly divided into two groups, each having six mice. Mice in the control group were fed with a 0.2 mL vehicle (DMSO:PEG400:saline = 5:50:45) by oral gavage daily and the second group with 10 mg/kg dose of HS-133 in 0.2 mL daily for 21 days. For intratumoral administration, HS-133 was injected intratumorally with 2 times per week with a dose of 5 mg/kg when tumors reached an average volume of 50–100 mm^3. The body weight and tumor size were recorded twice per week. The tumor size was calculated by 0.5 × long axis × (short axis) ^2. Animal care and experimental procedures were conducted in accordance with the Guide for Animal Experiments by the Korean Academy of Medical Sciences, and the protocols used to this study were approved by the Institutional Animal Care and Use Committee in Inha University Hospital (Approval No. 110802-105).

A short description of series [5]: tissue distribution, tissue-to-plasma ratio. In kind it is in vivo, BALB/c nude mice bearing SkBr3 xenograft. As to conditions: BALB/c nude, mouse, PO 10 mg/kg, 30 min post-dose. An excerpt: Various tissue concentrations, such as the heart, lung, liver, kidney, spleen, brain, and tumor in BALB/c nude mice bearing SkBr3 xenograft are shown in Fig. 9B. The ratios of each tissue-to-plasma (KP value) were 3.26, 4.18, 0.11, 1.99, 3.07, 4.99, and 2.06 for the heart, lung, liver, kidney, spleen, brain, and tumor, respectively. […] Thus, this high concentration level of HS-133 in tumor tissues may be contributed to in vivo efficacy in the SkBr3 xenograft model.
The heart, lung, liver, kidney, brain, spleen, and tumor were collected at 30 min post-dose from 3 different animals at each time point, rinsed with ice-cold saline, weighed and stored at −80°C until analysis. For HS-133 quantification, mouse tissues were homogenized with three times the volume of PBS. The homogenates were extracted by protein precipitation with acetonitrile. LC-MS/MS analysis was conducted as described for the plasma. The homogenate concentrations were converted to tissue concentrations for the calculations of each tissue-to-plasma ratio.

As usually defined, the EC50 is the concentration needed to bring the measured effect to its halfway point. The term IC50 denotes the concentration that gives 50% inhibition.

T1 sequence (P42336 whole entry): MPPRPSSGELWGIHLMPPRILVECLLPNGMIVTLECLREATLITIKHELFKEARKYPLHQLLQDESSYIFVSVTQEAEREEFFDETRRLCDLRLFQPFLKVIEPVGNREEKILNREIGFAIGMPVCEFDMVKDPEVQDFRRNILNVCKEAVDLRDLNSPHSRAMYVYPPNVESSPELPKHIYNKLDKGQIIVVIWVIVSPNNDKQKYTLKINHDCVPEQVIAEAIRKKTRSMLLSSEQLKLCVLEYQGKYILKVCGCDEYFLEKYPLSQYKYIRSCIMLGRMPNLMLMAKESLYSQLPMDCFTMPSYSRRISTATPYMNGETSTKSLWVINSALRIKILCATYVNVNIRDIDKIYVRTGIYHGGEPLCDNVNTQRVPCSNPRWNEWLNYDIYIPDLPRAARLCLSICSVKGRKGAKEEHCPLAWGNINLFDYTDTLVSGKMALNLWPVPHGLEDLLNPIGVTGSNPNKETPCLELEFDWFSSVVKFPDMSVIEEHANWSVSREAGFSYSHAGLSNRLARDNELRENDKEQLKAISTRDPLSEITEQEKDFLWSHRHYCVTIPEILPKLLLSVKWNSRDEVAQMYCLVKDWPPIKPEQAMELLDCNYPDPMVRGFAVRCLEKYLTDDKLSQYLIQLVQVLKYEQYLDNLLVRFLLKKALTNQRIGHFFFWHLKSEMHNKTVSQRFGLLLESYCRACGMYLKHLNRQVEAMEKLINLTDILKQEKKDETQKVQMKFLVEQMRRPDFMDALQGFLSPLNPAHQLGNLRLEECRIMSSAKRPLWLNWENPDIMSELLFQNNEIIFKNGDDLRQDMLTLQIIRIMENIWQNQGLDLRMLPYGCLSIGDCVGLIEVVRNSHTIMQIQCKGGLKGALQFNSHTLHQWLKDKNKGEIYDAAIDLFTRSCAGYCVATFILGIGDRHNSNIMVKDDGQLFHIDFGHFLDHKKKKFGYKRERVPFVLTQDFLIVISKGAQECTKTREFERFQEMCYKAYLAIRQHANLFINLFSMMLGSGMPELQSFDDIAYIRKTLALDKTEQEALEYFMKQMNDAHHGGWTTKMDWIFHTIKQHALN
T1 sequence (P27986 whole entry partner): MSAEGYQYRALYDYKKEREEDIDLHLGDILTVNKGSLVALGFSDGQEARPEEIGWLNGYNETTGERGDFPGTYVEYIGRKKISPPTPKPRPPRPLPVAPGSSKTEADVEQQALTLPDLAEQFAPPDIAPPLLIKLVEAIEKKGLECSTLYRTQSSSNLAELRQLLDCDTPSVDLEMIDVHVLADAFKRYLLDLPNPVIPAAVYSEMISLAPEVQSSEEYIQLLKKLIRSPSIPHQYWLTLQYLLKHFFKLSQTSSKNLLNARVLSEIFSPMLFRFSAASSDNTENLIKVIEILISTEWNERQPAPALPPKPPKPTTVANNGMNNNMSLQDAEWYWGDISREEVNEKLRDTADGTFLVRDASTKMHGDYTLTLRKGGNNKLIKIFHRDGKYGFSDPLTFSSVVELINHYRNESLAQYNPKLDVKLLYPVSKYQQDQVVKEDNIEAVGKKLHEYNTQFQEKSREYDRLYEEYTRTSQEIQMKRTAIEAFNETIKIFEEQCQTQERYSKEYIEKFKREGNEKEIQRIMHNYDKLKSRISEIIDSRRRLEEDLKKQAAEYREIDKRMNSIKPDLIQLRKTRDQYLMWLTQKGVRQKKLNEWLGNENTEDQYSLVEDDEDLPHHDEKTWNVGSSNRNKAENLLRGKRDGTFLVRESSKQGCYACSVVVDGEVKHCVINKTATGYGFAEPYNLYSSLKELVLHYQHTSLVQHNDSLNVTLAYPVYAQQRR

Take `CC(=O)Nc1ccc(-c2nc3c(c(=O)n(C)c(=O)n3C)n2-c2cccc(F)c2)cc1` [HS-133, N-(4-(7-(3-Fluorophenyl)-1,3-dimethyl-2,6-dioxo-2,3,6,7-tetrahydro-1H-purin-8-yl)phenyl) acetamide]: the EC50 in series [1] (Fig. 2A, read-out: EC50 (printed in Fig. 2A), inhibitory activity against PI3Kα in vitro) is 992 nM. Also, in series [1] (radiometric kinase assay, read-out: IC50 against PI3Kα), the IC50 came to 992 nM. For the same molecule, the “induction of apoptosis (cleavage of PARP and caspases, Bax, TUNEL)” value in series [2] is given as “could induce apoptosis”. Also, the cell migration entry in series [3] is on record as “significantly inhibited”. Also, the “tumor volume and weight” value in series [4] (intratumoral 5 mg/kg, 2 times per week, 19 days) was “remarkably reduced”. For the same molecule, the “reduction of average tumor volume compared to control mice” value in series [4] (oral 10 mg/kg daily for 21 days) is reported as “about 50%”. Also, the “body weight change in tumor-bearing mice” value in series [4] (same dose, SkBr3 xenograft mice) is listed as “no significant change”. Also, the Kp at 0.5 h in series [5] (brain, read-out: tissue-to-plasma ratio (KP value), brain) came to 4.99; in series [5] (heart, read-out: tissue-to-plasma ratio (KP value), heart) it was 3.26; in series [5] (kidney, read-out: tissue-to-plasma ratio (KP value), kidney), 1.99; in series [5] (liver, read-out: tissue-to-plasma ratio (KP value), liver), 0.11; in series [5] (lung, read-out: tissue-to-plasma ratio (KP value), lung) it was 4.18; in series [5] (spleen, read-out: tissue-to-plasma ratio (KP value), spleen) it was 3.07. In addition, in series [5] (tumor, read-out: tissue-to-plasma ratio (KP value), tumor), the Kp at 0.5 h amounted to 2.06.
